Assay results reported in ChEMBL document CHEMBL1137529, “Syntheses and optimization of new GS39783 analogues as positive allosteric modulators of GABA B receptors” (Bioorg Med Chem Lett, 2007).

Key:
GABA-B receptor = GABA-B receptor (Homo sapiens, UniProt O75899+Q9UBS5); experiment: Activity at GABAB 1b/2 receptor expressed in CHO-K1 cells assessed as effect on GABA-induced [35S]GTP-gamma-S binding
[1] = Partition coefficient, log P of the compound; format: physicochemical; settings: octanol/water
[2] = Solubility in water; format: physicochemical

Chain of GABA-B receptor (Q9UBS5 whole entry): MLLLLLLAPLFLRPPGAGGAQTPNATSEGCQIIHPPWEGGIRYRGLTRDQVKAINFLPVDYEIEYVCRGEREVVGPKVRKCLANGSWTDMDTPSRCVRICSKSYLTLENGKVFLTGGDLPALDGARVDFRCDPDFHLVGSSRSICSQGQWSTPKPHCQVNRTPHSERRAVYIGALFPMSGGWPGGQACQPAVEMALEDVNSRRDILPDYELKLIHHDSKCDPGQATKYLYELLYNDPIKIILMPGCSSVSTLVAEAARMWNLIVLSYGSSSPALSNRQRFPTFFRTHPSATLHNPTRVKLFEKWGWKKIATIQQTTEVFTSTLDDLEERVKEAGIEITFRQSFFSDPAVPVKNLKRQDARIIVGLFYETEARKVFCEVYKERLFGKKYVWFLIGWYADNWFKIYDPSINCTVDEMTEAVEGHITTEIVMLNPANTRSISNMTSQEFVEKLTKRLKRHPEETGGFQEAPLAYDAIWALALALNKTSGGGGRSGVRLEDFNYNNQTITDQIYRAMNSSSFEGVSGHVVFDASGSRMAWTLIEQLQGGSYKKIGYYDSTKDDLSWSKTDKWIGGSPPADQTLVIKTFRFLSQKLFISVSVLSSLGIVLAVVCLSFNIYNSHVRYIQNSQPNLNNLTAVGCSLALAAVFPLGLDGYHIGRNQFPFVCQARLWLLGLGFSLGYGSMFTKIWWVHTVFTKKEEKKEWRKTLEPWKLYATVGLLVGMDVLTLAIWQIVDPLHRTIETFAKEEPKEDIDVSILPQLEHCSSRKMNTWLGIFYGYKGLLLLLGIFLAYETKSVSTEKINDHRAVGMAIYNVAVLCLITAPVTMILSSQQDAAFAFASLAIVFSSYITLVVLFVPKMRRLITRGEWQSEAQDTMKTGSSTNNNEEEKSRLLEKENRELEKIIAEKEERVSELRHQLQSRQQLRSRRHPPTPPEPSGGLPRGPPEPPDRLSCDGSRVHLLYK
Chain of GABA-B receptor (O75899 whole entry): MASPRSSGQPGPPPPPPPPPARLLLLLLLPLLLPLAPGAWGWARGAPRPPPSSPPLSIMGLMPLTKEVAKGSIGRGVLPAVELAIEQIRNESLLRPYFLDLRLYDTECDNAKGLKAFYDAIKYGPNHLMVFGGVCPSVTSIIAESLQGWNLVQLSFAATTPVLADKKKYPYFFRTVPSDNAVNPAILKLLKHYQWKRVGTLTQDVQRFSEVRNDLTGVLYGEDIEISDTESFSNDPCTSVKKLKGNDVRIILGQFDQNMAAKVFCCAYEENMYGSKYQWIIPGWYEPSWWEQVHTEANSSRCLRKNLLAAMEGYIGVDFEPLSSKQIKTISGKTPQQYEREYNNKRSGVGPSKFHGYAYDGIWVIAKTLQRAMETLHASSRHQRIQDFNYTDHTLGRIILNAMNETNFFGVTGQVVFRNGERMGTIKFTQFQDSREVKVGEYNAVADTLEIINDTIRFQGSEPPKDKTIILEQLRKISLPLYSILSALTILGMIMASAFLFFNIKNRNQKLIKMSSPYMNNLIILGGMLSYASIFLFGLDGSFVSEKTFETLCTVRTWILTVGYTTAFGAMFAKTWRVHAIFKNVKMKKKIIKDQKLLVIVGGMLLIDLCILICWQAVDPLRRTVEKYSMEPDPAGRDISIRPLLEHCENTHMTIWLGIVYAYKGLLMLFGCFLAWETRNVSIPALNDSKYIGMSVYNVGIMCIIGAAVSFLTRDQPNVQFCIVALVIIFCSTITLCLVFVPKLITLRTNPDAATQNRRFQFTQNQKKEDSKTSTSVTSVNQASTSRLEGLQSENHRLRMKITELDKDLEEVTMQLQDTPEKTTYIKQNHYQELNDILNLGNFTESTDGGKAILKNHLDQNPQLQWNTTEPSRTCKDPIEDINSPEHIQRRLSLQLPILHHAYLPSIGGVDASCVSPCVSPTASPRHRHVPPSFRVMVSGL

EC50 (GABA-B receptor) [nM]	logP [1]	solubility [2] [µg/mL]	SMILES
4570			Cc1ncc(-c2ccc(OC(F)(F)F)cc2)c(NC2CCCC2)n1
	> 5.9	< 10	Cc1ncc(-c2ccc(C(F)(F)F)cc2)c(NC2C3CC4CC(C3)CC2C4)n1 (configuration not stated)
2040			COc1ncc(-c2ccc(C(F)(F)F)cc2)c(N[C@@H]2C[C@@H]3CC[C@H]2C3)n1
1660			Cc1ncc(-c2ccc(C(F)(F)F)cc2)c(NC2CCCCCC2)n1
	> 5.9	< 10	Cc1ncc(-c2ccc(C(F)(F)F)cc2)c(NC23CC4CC(CC(C4)C2)C3)n1
